# Molecular target: SARS-CoV-2 3CL-protease (Severe acute respiratory syndrome coronavirus 2, UniProt P0DTD1)
# Assay: SARS-CoV-2 3C-Like (3CL) Protease Fluorescence Assay (FRET)
# Format: biochemical
# Conditions: IC50, SARS-CoV-2 3CL-protease 10 nM, test compounds 0-10 μM, duplicate
row,SMILES,IC50
1,CC(C)(C)C(NC(=O)OCc1ccccc1)C(=O)N1CCC[C@H]1C(=O)N1C[C@]2(C[C@H]1C#N)C(=O)Nc1ccccc12 (some centres unmarked) [Example 55],100 to 1000 nM
2,CC(C)[C@H](NS(=O)(=O)c1ccc(F)cc1)C(=O)N(C)[C@@H](CC(C)(C)C)C(=O)N1C[C@]2(C[C@H]1C#N)C(=O)Nc1ccccc12 [Example 111],< 100 nM
3,C[C@H](NC(=O)C(F)(F)C(F)(F)F)C(=O)N(C)[C@@H](CC(C)(C)C)C(=O)N1C[C@]2(C[C@H]1C#N)C(=O)Nc1ccccc12 [Example 133],< 100 nM
4,CC(C)C[C@@H](C(=O)N1C[C@]2(C[C@H]1C#N)C(=O)Nc1ccccc12)N(C)C(=O)[C@H](C)NC(=O)C(F)(F)C(F)(F)C(F)(F)F [Example 137],< 100 nM
5,C[C@H](NC(=O)C(F)(F)C(F)(F)F)C(=O)N(C)[C@@H](CC1CC1)C(=O)N1C[C@]2(C[C@H]1C#N)C(=O)N(COP(=O)(OC(C)(C)C)OC(C)(C)C)c1ccccc12 [Example 351],< 100 nM

# Same assay, conditions: SARS-CoV-2 3CL-protease 10 nM, test compounds 0-10 μM, duplicate, read-out: IC50
row,SMILES,IC50
1,CC(C)C[C@@H](C(=O)N1C[C@]2(C[C@H]1C#N)C(=O)Nc1ccccc12)N(C)C(=O)[C@H](C)NC(=O)C(F)(F)C(F)(F)F [Example 136],< 100 nM
2,[2H]C([2H])([2H])N(C(=O)[C@H](CC1CC1)NC(=O)c1ccc(F)cc1)[C@@H](CC1CC1)C(=O)N1C[C@]2(C[C@H]1C#N)C(=O)Nc1ccccc12 [Example 140],< 100 nM
3,CC(C)(C)C[C@H](NC(=O)[C@H](CC1CC1)NC(=O)c1cn(C2CC2)nn1)C(=O)N1C[C@]2(C[C@H]1C#N)C(=O)Nc1ccccc12 [Example 324],< 100 nM
4,CC(C)(C)C[C@H](NC(=O)[C@H](CC1CC1)NC(=O)c1c[nH]cn1)C(=O)N1C[C@]2(C[C@H]1C#N)C(=O)Nc1ccccc12 [Example 325],100 to 1000 nM
5,CC(C)(C)C[C@H](NC(=O)[C@H](CC1CC1)NC(=O)c1ccc(F)c(F)c1)C(=O)N1C[C@]2(C[C@H]1C#N)C(=O)Nc1ccccc12 [Example 326],< 100 nM
6,CC(C)(C)C[C@H](NC(=O)[C@H](CC1CC1)NC(=O)C1CCCCC1)C(=O)N1C[C@]2(C[C@H]1C#N)C(=O)Nc1ccccc12 [Example 327],< 100 nM
7,CC(C)(C)C[C@H](NC(=O)[C@H](CC1CC1)NC(=O)OC1CC1)C(=O)N1C[C@]2(C[C@H]1C#N)C(=O)Nc1ccccc12 [Example 331],100 to 1000 nM
8,C[C@H](Nc1ccc(F)cc1)C(=O)N[C@@H](CC(C)(C)C)C(=O)N1C[C@]2(C[C@H]1C#N)C(=O)Nc1ccccc12 [Example 336],100 to 1000 nM
9,CC(C)[C@H](Nc1ccc(F)cc1)C(=O)N[C@@H](CC(C)(C)C)C(=O)N1C[C@]2(C[C@H]1C#N)C(=O)Nc1ccccc12 [Example 337],100 to 1000 nM
10,CC(C)(C)C[C@H](NC(=O)[C@@H](Nc1ccc(F)cc1)C1CC1)C(=O)N1C[C@]2(C[C@H]1C#N)C(=O)Nc1ccccc12 [Example 338],< 100 nM
11,CC(C)(C)C[C@H](NC(=O)[C@H](Cc1ccccc1)Nc1ccc(F)cc1)C(=O)N1C[C@]2(C[C@H]1C#N)C(=O)Nc1ccccc12 [Example 339],< 100 nM
12,CC(C)(C)C[C@H](NC(=O)[C@@H](Nc1ccccc1)C1CC1)C(=O)N1C[C@]2(C[C@H]1C#N)C(=O)Nc1ccccc12 [Example 340],< 100 nM
13,CC(C)(C)C[C@H](NC(=O)[C@@H](Nc1ccc(F)cc1F)C1CC1)C(=O)N1C[C@]2(C[C@H]1C#N)C(=O)Nc1ccccc12 [Example 341],< 100 nM
14,CC(C)(C)C[C@H](NC(=O)[C@@H](Nc1ccc2ccccc2c1)C1CC1)C(=O)N1C[C@]2(C[C@H]1C#N)C(=O)Nc1ccccc12 [Example 342],< 100 nM
15,CC(C)(C)C[C@H](NC(=O)[C@@H](Nc1cnc2ccccc2c1)C1CC1)C(=O)N1C[C@]2(C[C@H]1C#N)C(=O)Nc1ccccc12 [Example 343],< 100 nM
16,CC(C)C(NC(=O)C(F)(F)F)C(=O)N1CC[C@H](c2ccccc2)[C@H]1C(=O)N1C[C@]2(C[C@H]1C#N)C(=O)Nc1ccccc12 (some centres unmarked) [Example 344],< 100 nM
17,CC(C)CC(NC(=O)C(F)(F)F)C(=O)N1CC[C@H](c2ccccc2)[C@H]1C(=O)N1C[C@]2(C[C@H]1C#N)C(=O)Nc1ccccc12 (some centres unmarked) [Example 345],< 100 nM
18,CC(C)CC(NC(=O)c1cnn(CC(F)(F)F)c1)C(=O)N1CC[C@H](c2ccccc2)[C@H]1C(=O)N1C[C@]2(C[C@H]1C#N)C(=O)Nc1ccccc12 (some centres unmarked) [Example 346],< 100 nM
19,CN(C(=O)[C@H](CC1CC1)NC(=O)C(F)(F)C(F)(F)F)[C@@H](CC1CC1)C(=O)N1C[C@]2(C[C@H]1C#N)C(=O)Nc1ccccc12 [Example 347],< 100 nM
20,C[C@H](NC(=O)C(F)(F)C(F)(F)F)C(=O)N(C)[C@@H](CC(C)(C)C)C(=O)N1C[C@]2(C[C@H]1C#N)C(=O)N(C)c1ccccc12 [Example 348],< 100 nM
21,CC(C)OC(=O)OCN1C(=O)[C@]2(C[C@@H](C#N)N(C(=O)[C@H](CC3CC3)N(C)C(=O)[C@H](C)NC(=O)C(F)(F)C(F)(F)F)C2)c2ccccc21 [Example 350],100 to 1000 nM
22,C[C@H](NC(=O)C(F)(F)C(F)(F)F)C(=O)N(C)[C@@H](CC1CC1)C(=O)N1C[C@]2(C[C@H]1C#N)C(=O)N(COP(=O)(O)O)c1ccccc12 [Example 352],< 100 nM
23,CC(C)C[C@@H](C(=O)N1C[C@]2(C[C@H]1C#N)C(=O)Nc1ccccc12)n1cccc(NS(=O)(=O)C2CC2)c1=O [Example 353],< 100 nM

row,SMILES,IC50
1,CC(C)C[C@@H](C(=O)N1C[C@]2(C[C@H]1C#N)C(=O)Nc1ccccc12)n1cccc(NC(=O)OC(C)(C)C)c1=O [Example 354],100 to 1000 nM
2,CC(C)C[C@@H](C(=O)N1C[C@]2(C[C@H]1C#N)C(=O)Nc1ccccc12)n1cccc(NC(=O)C2CC2)c1=O [Example 357],< 100 nM
3,CC(=O)Nc1cccn([C@H](CC(C)C)C(=O)N2C[C@]3(C[C@H]2C#N)C(=O)Nc2ccccc23)c1=O [Example 358],< 100 nM
4,CC(C)C[C@H](C(=O)N1C[C@]2(C[C@H]1C#N)C(=O)Nc1ccccc12)n1cccc(NS(=O)(=O)C2CC2)c1=O [Example 359],100 to 1000 nM
5,CC(C)C[C@H](C(=O)N1C[C@]2(C[C@H]1C#N)C(=O)Nc1ccccc12)n1cccc(NC(=O)OC(C)(C)C)c1=O [Example 360],< 100 nM
6,CCN(C(=O)[C@H](C)NC(=O)c1ccc(OC(F)(F)F)cc1)[C@@H](CC(C)C)C(=O)N1C[C@]2(C[C@H]1C#N)C(=O)Nc1ccccc12 [Example 361],< 100 nM
7,CCN(C(=O)[C@H](C)NC(=O)c1c(F)cc(F)cc1F)[C@@H](CC(C)C)C(=O)N1C[C@]2(C[C@H]1C#N)C(=O)Nc1ccccc12 [Example 362],< 100 nM
8,CCN(C(=O)[C@H](C)NC(=O)c1ccc(C(C)(C)C)cc1)[C@@H](CC(C)C)C(=O)N1C[C@]2(C[C@H]1C#N)C(=O)Nc1ccccc12 [Example 363],< 100 nM
9,CCN(C(=O)[C@H](C)NC(=O)c1ccc(Cl)c(Cl)c1)[C@@H](CC(C)C)C(=O)N1C[C@]2(C[C@H]1C#N)C(=O)Nc1ccccc12 [Example 364],< 100 nM
10,CCN(C(=O)[C@H](C)NC(=O)C(F)(F)F)[C@@H](CC(C)C)C(=O)N1C[C@]2(C[C@H]1C#N)C(=O)Nc1ccccc12 [Example 365],< 100 nM
11,CCN(C(=O)[C@H](C)NC(=O)C(F)(F)C(F)(F)F)[C@@H](CC(C)C)C(=O)N1C[C@]2(C[C@H]1C#N)C(=O)Nc1ccccc12 [Example 366],< 100 nM
12,CCN(C(=O)C(C)NC(=O)C12CC(C)(C1)C2)C(CC(C)C)C(=O)N1CC2(CC1C#N)C(=O)Nc1ccccc12 (centres unmarked) [Example 367],< 100 nM
13,CCN(C(=O)[C@H](C)NC(=O)C12CC3CC(CC(C3)C1)C2)[C@@H](CC(C)C)C(=O)N1C[C@]2(C[C@H]1C#N)C(=O)Nc1ccccc12 [Example 368],< 100 nM
14,CCCC(F)(F)C(=O)N[C@@H](C)C(=O)N(CC)[C@@H](CC(C)C)C(=O)N1C[C@]2(C[C@H]1C#N)C(=O)Nc1ccccc12 [Example 369],< 100 nM
15,CCN(C(=O)[C@H](C)NC(=O)N1CCCCC1)[C@@H](CC(C)C)C(=O)N1C[C@]2(C[C@H]1C#N)C(=O)Nc1ccccc12 [Example 370],< 100 nM
16,CCN(C(=O)[C@H](C)NC(=O)OC(C)C)[C@@H](CC(C)C)C(=O)N1C[C@]2(C[C@H]1C#N)C(=O)Nc1ccccc12 [Example 371],< 100 nM
17,CCN(C(=O)[C@H](C)NC(=O)c1ccc(F)cc1)[C@@H](CC(C)C)C(=O)N1C[C@]2(C[C@H]1C#N)C(=O)Nc1ccccc12 [Example 372],< 100 nM
18,C[C@@H]1NC(=O)CCCCCc2ccc3c(c2)[C@@]2(C[C@@H](C#N)N(C2)C(=O)[C@H](CC(C)(C)C)NC1=O)C(=O)N3 [Example 375],> 1000 nM
19,C[C@@H]1NC(=O)CCCCCCCc2ccc3c(c2)[C@@]2(C[C@@H](C#N)N(C2)C(=O)[C@H](CC(C)(C)C)NC1=O)C(=O)N3 [Example 376],> 1000 nM
20,C[C@@H]1NC(=O)CCCCc2ccc3c(c2)[C@@]2(C[C@@H](C#N)N(C2)C(=O)[C@H](CC(C)(C)C)N(C)C1=O)C(=O)N3 [Example 377],< 100 nM
21,C[C@@H]1NC(=O)CCCc2ccc3c(c2)[C@@]2(C[C@@H](C#N)N(C2)C(=O)[C@H](CC(C)(C)C)N(C)C1=O)C(=O)N3 [Example 378],< 100 nM
22,C[C@@H]1NC(=O)CCCCCCc2ccc3c(c2)[C@@]2(C[C@@H](C#N)N(C2)C(=O)[C@H](CC(C)(C)C)NC1=O)C(=O)N3 [Example 379],> 1000 nM

# System: 229E human corona virus (hCoV)
# Assay: 229E live virus assay (MRC-5 cells, CPE, ATPlite readout)
# Format: cell-based, hCoV-229E
# Conditions: Human coronavirus 229E, MRC5, 144 h, read-out: 229E EC50
row,SMILES,EC50
1,CC(C)(C)C(NC(=O)OCc1ccccc1)C(=O)N1CCC[C@H]1C(=O)N1C[C@]2(C[C@H]1C#N)C(=O)Nc1ccccc12 (some centres unmarked) [Example 55],> 1000 nM
2,CC(C)[C@@H](NC(=O)OCc1ccccc1)C(=O)N[C@@H](CC(C)(C)C)C(=O)N1C[C@]2(C[C@H]1C#N)C(=O)Nc1ccccc12 [Example 87],> 1000 nM
3,CC(C)[C@H](NS(=O)(=O)c1ccc(F)cc1)C(=O)N(C)[C@@H](CC(C)(C)C)C(=O)N1C[C@]2(C[C@H]1C#N)C(=O)Nc1ccccc12 [Example 111],100 to 1000 nM
4,CC(C)C[C@@H](C(=O)N1C[C@]2(C[C@H]1C#N)C(=O)Nc1ccccc12)N(C)C(=O)[C@H](C)NC(=O)C(F)(F)C(F)(F)C(F)(F)F [Example 137],< 100 nM

# Same assay, conditions: Human coronavirus 229E, MRC5, 144 h; hCoV-229E in MRC-5 cells, MOI 0.05, 6 days at 34° C., ATPlite, run in duplicate; read-out: 229E EC50
row,SMILES,EC50
1,CC(C)OC(=O)N[C@H](C(=O)N(C)[C@@H](Cc1ccccc1)C(=O)N1C[C@]2(C[C@H]1C#N)C(=O)Nc1ccccc12)C(C)(C)C [Example 31],< 100 nM
2,C[C@H](NC(=O)C(F)(F)C(F)(F)F)C(=O)N(C)[C@@H](CC(C)(C)C)C(=O)N1C[C@]2(C[C@H]1C#N)C(=O)Nc1ccccc12 [Example 133],< 100 nM
3,CC(C)C[C@@H](C(=O)N1C[C@]2(C[C@H]1C#N)C(=O)Nc1ccccc12)N(C)C(=O)[C@H](C)NC(=O)C(F)(F)F [Example 135],< 100 nM
4,CC(C)C[C@@H](C(=O)N1C[C@]2(C[C@H]1C#N)C(=O)Nc1ccccc12)N(C)C(=O)[C@H](C)NC(=O)C(F)(F)C(F)(F)F [Example 136],< 100 nM
5,[2H]C([2H])([2H])N(C(=O)[C@H](CC1CC1)NC(=O)c1ccc(F)cc1)[C@@H](CC1CC1)C(=O)N1C[C@]2(C[C@H]1C#N)C(=O)Nc1ccccc12 [Example 140],< 100 nM

# From patent US20260138988A1, “Spiropyrrolidine Derived Antiviral Agents” (Enanta Pharmaceuticals, Inc., priority 2021, published 2026)
